Active and inactive are the calls of the source. The calls are words filed in the database; no cut-off is given here.
How the values were obtained:
Machupo mammarenavirus = test: Antiviral activity against Machupo virus pseudovirions infected in HEK293T/17 cells after 72 hrs by luciferase reporter gene assay; format: functional, cell-based; details: Mammarenavirus machupoense, HEK-293T
Sabia virus = test: Antiviral activity against Sabia virus pseudovirions infected in HEK293T/17 cells after 72 hrs by luciferase reporter gene assay; format: functional, cell-based; details: HEK-293T
Lassa virus [1] = test: Antiviral activity against Lassa virus pseudovirions infected in HEK293T/17 cells after 72 hrs by luciferase reporter gene assay; format: functional, organism-based; details: Mammarenavirus lassaense, HEK-293T
Junin virus = test: Antiviral activity against Junin virus pseudovirions infected in HEK293T/17 cells after 72 hrs by luciferase reporter gene assay; format: functional, organism-based; details: Mammarenavirus juninense, HEK-293T
Lassa virus [2] = test: Antiviral activity against Lassa virus pseudovirions infected in HEK293T/17 cells at 50 uM after 72 hrs by luciferase reporter gene assay; format: functional, organism-based; details: Mammarenavirus lassaense, HEK-293T
Lassa virus [3] = test: Antiviral activity against Lassa virus infected in guinea pig strain 13 assessed as host survival rate at 80 mg/kg/day, ip administered at 1 hr prior to infection for 14 days relative to control; format: functional, Mammarenavirus lassaense; details: route intraperitoneal
Guanarito virus = test: Antiviral activity against Guanarito virus pseudovirions infected in HEK293T/17 cells after 72 hrs by luciferase reporter gene assay; format: functional, cell-based; details: Mammarenavirus guanaritoense, HEK-293T
Lassa virus [4] = test: Antiviral activity against Lassa virus infected in guinea pig strain 13 assessed as reduction in viral titre in plasma at 25 mg/kg/day, ip administered at 1 hr prior to infection for 14 days relative to control; format: functional, Mammarenavirus lassaense; details: route intraperitoneal
Lassa virus [5] = test: Antiviral activity against Lassa virus infected in guinea pig strain 13 assessed as host survival rate at 25 mg/kg/day, ip administered at 1 hr prior to infection for 14 days relative to control; format: functional, Mammarenavirus lassaense; details: route intraperitoneal

Row | SMILES | EC50 (Lassa virus [1]) [µM] | further results
1 | CCOc1ccc(-n2cnc3cc(CNc4ccc(CC)cc4)ccc32)cc1 | 0.011 | EC50 (Machupo mammarenavirus): 0.012 µM; EC50 (Sabia virus): 0.043 µM; EC50 (Junin virus): 0.005 µM
2 | CCCNc1ccc2c(c1)ncn2-c1ccc(OC)cc1 | – | Activity (Lassa virus [2]): inactive
3 | CC(C)c1ccc(CNc2ccc3c(c2)ncn3-c2ccc(OCCc3ccccc3)cc2)cc1 | 0.043 | –
4 | COc1ccc(-n2cnc3cc(NCc4ccccc4OC)ccc32)cc1 | 0.46 | –
5 | Cc1ccc(CNc2ccc3c(c2)ncn3C2CCCCC2)cc1 | 0.32 | –
6 | CCc1ccc(CNc2ccc3c(c2)ncn3-c2ccc(OC)nn2)cc1 | 0.081 | –
7 | COc1ccc(-n2cnc3cc(NC(=O)c4ccc(C)cc4)ccc32)cc1 | > 50 | –
8 | COc1ccc(-n2cnc3cc(NCc4ccc(CN5CCOCC5)cc4)ccc32)cc1 | 0.79 | –
9 | CCCCOc1ccc(-n2cnc3cc(NCc4ccc(C(C)C)cc4)ccc32)cc1 | 0.0056 | –
10 | CC(C)c1ccc(CNc2ccc3c(c2)ncn3-c2ccc(C(C)(C)C)cc2)cc1 | 0.004 | –
11 | COc1ccc(-n2cnc3cc(N(C)Cc4ccc(C(C)C)cc4)ccc32)cc1 | 0.057 | –
12 | CCCCOc1ccc(CNc2ccc3c(c2)ncn3-c2ccc(OC)cc2)cc1 | 0.006 | –
13 | CCc1ccc(CNc2ccc3c(c2)ncn3-c2ccc(OC)cn2)cc1 | 0.0058 | –
14 | CCOc1ccc(-n2cnc3cc(NCc4cnc(CC)nc4)ccc32)cc1 | 0.45 | –
15 | COc1ccc(-n2cnc3cc(NCc4ccc(Cc5ccccc5)cc4)ccc32)cc1 | 0.046 | –
16 | COc1ccc(-n2cnc3cc(N(Cc4ccc(C(C)C)cc4)S(=O)(=O)c4ccc(C)cc4)ccc32)cc1 | 0.11 | EC50 (Machupo mammarenavirus): 0.04 µM; EC50 (Sabia virus): 0.51 µM; EC50 (Junin virus): 0.016 µM
17 | COc1ccc(-n2cnc3cc(NCc4cccc(OC)c4OC)ccc32)cc1 | 0.16 | –
18 | COc1ccc(-n2cnc3cc(NCc4ccc(C(C)(C)C)cc4)ccc32)cc1 | 0.0011 | –
19 | COc1ccc(-n2cnc3cc(NCc4ccc(CN(C)C)cc4)ccc32)cc1 | 0.27 | –
20 | CC(C)c1ccc(CNc2ccc3ncn(-c4ccc(OC(C)(C)C)cc4)c3c2)cc1 | 0.18 | –
21 | COc1ccc(-n2cnc3cc(NCc4ccco4)ccc32)cc1 | 1.2 | –
22 | COc1ccc(-n2cnc3cc(NCc4ccc(CN5CCN(C)CC5)cc4)ccc32)cc1 | 16 | –
23 | CC(C)c1ccc(CNc2ccc3c(c2)ncn3-c2ccccc2)cc1 | 0.0052 | –
24 | CC(C)c1ccc(CNc2ccc3c(c2)ncn3-c2ccc(Oc3ccc4ccccc4c3)cc2)cc1 | 0.54 | –
25 | COc1ccc(-n2cnc3cc(NCc4ccc(OC)c(OC)c4)ccc32)cc1 | 0.7 | –
26 | COc1ccc(-n2cnc3cc(NCc4cccc(OC)c4)ccc32)cc1 | 0.035 | –

Row | SMILES | EC50 (Lassa virus [1]) [µM] | further results
27 | COc1ccc(-n2cnc3cc(NCc4ccc(OC(C)(C)C)cc4)ccc32)cc1 | 0.0052 | –
28 | COc1ccc(-n2cnc3cc(NCc4ccc(Oc5ccccc5)cc4)ccc32)cc1 | 0.38 | –
29 | CCOc1ccc(CNc2ccc3c(c2)ncn3-c2ccc(OC)cc2)cc1 | 0.004 | –
30 | CNc1ccc2c(c1)ncn2-c1ccc(OC)cc1 | – | Activity (Lassa virus [2]): inactive
31 | COc1ccc(-n2cnc3cc(NCc4ccccc4O)ccc32)cc1 | 0.31 | –
32 | COc1ccc(-n2cnc3cc(NCc4ccc(CN5CCCCC5)cc4)ccc32)cc1 | 1.4 | –
33 | COc1ccc(-n2cnc3cc(NCc4ccc(OCCN(C)C)cc4)ccc32)cc1 | 3.3 | –
34 | CCCCc1ccc(-n2cnc3cc(NCc4ccc(C(C)C)cc4)ccc32)cc1 | 0.0044 | –
35 | COc1ccc(-n2cnc3cc(NCc4ccc(Cl)cc4)ccc32)cc1 | 0.047 | –
36 | CCOc1ccc(-n2cnc3cc(NCc4ccc(C)nc4)ccc32)cc1 | 0.24 | –
37 | COc1ccc(-n2cnc3cc(NCc4cccc5ccccc45)ccc32)cc1 | 0.069 | –
38 | CC(C)c1ccc(CNc2ccc3c(c2)ncn3-c2ccc(Oc3ccccc3)cc2)cc1 | 0.13 | –
39 | NC(=O)c1ncn([C@@H]2O[C@H](CO)[C@@H](O)[C@H]2O)n1 [RIBAVIRIN] | – | Activity (Lassa virus [3]): 0%
40 | CC(C)c1ccc(CNc2ccc3c(c2)ncn3-c2ccc(OC(C)(C)C)cc2)cc1 | 0.0086 | –
41 | CCOc1ccc(-n2cnc3cc(NCc4ccc(C)cn4)ccc32)cc1 | 0.35 | –
42 | COc1ccc(CNc2ccc3c(c2)ncn3-c2ccc(OC)cc2)cc1 | 0.011 | EC50 (Machupo mammarenavirus): 0.045 µM; EC50 (Sabia virus): 0.11 µM; EC50 (Junin virus): 0.0077 µM; EC50 (Guanarito virus): 0.0056 µM
43 | CCCCc1ccc(CNc2ccc3c(c2)ncn3-c2ccc(OC)cc2)cc1 | 0.0015 | –
44 | CCc1ccc(-n2cnc3cc(NCc4ccc(C(C)C)cc4)ccc32)cc1 | 0.0019 | –
45 | COc1ccc(-n2cnc3cc(N(Cc4ccc(C(C)C)cc4)C(C)=O)ccc32)cc1 | 0.38 | –
46 | COc1ccc(-n2cnc3cc(NCc4ccc(C(C)C)cc4)ccc32)cc1 | 0.0014 | EC50 (Machupo mammarenavirus): 0.0031 µM; EC50 (Sabia virus): 0.021 µM; fold change (FC) (Lassa virus [4]): 2; Activity (Lassa virus [5]): 63%; EC50 (Junin virus): 0.00062 µM; EC50 (Guanarito virus): 0.00044 µM
47 | CC(C)c1ccc(CNc2ccc3c(c2)ncn3-c2ccc(Cc3ccccc3)cc2)cc1 | 0.12 | –
48 | CCOc1ccc(-n2cnc3cc(NCc4ccc(CC(=O)O)cc4)ccc32)cc1 | 1.3 | –
49 | CCc1ccc(CNc2ccc3c(c2)ncn3-c2cnc(OC)nc2)cc1 | 0.45 | –
50 | CCc1ccc(CNc2ccc3c(c2)ncn3-c2ccc(OC)cc2)cc1 | 0.0012 | –
51 | CCc1ccc(CNc2ccc3c(c2)ncn3-c2ccc(OC)nc2)cc1 | 0.032 | –

Source: ChEMBL document CHEMBL2321741, “Discovery and optimization of potent broad-spectrum arenavirus inhibitors derived from benzimidazole” (Bioorg Med Chem Lett, 2013)
